This note sets out measurements from ChEMBL document CHEMBL1125022, “Chiral modifications of dolastatin 10: the potent cytostatic peptide (19aR)-isodolastatin 10” (1990).

≈ marks a conversion by molar mass, not a printed value.

This assay deals with P388. As to the kind of experiment: Effect against cell growth of the P388 lymphocytic leukemia (PS system). The class given is functional. The conditions noted are these: Mus musculus, read-out: ED50 (the source's name).
`CC[C@H](C)[C@@H]([C@@H](CC(=O)N1CCC[C@H]1[C@H](OC)[C@@H](C)C(=O)N[C@@H](Cc1ccccc1)c1nccs1)OC)N(C)C(=O)[C@@H](NC(=O)[C@H](C(C)C)N(C)C)C(C)C` [DOLASTATIN-10]: the EC50 was 1 ng/mL (≈ 1.27 nM).
Under `CC[C@@H](C)[C@@H]([C@H](CC(=O)N1CCC[C@H]1[C@@H](OC)[C@H](C)C(=O)N[C@@H](Cc1ccccc1)c1nccs1)OC)N(C)C(=O)[C@@H](NC(=O)[C@H](C(C)C)N(C)C)C(C)C` stands more than 1000 ng/mL.
The same measure for `CC[C@@H](C)[C@H]([C@@H](CC(=O)N1CCC[C@H]1[C@H](OC)[C@H](C)C(=O)N[C@@H](Cc1ccccc1)c1nccs1)OC)N(C)C(=O)[C@@H](NC(=O)[C@H](C(C)C)N(C)C)C(C)C`: more than 1000 ng/mL.
As for `CCC(C)[C@@H]([C@H](CC(=O)N1CCC[C@H]1[C@H](OC)[C@H](C)C(=O)N[C@@H](Cc1ccccc1)c1nccs1)OC)N(C)C(=O)[C@@H](NC(=O)[C@H](C(C)C)N(C)C)C(C)C` (some centres undefined), the EC50 is 620 ng/mL (≈ 790 nM).
Under `CCC(C)[C@H]([C@@H](CC(=O)N1CCC[C@H]1[C@H](OC)[C@H](C)C(=O)N[C@@H](Cc1ccccc1)c1nccs1)OC)N(C)C(=O)[C@@H](NC(=O)[C@H](C(C)C)N(C)C)C(C)C` (some centres undefined) stands more than 1000 ng/mL; under `CCC(C)[C@@H]([C@@H](CC(=O)N1CCC[C@H]1[C@H](OC)[C@H](C)C(=O)N[C@@H](Cc1ccccc1)c1nccs1)OC)N(C)C(=O)[C@@H](NC(=O)[C@H](C(C)C)N(C)C)C(C)C` (some centres undefined), 1.6 ng/mL (≈ 2.04 nM).
Regarding `CC[C@@H](C)[C@@H]([C@@H](CC(=O)N1CCC[C@H]1[C@@H](OC)[C@H](C)C(=O)N[C@@H](Cc1ccccc1)c1nccs1)OC)N(C)C(=O)[C@@H](NC(=O)[C@H](C(C)C)N(C)C)C(C)C`, the EC50 was 39 ng/mL (≈ 49.7 nM).
The same measure for `CC[C@@H](C)[C@@H]([C@H](CC(=O)N1CCC[C@H]1[C@H](OC)[C@@H](C)C(=O)N[C@@H](Cc1ccccc1)c1nccs1)OC)N(C)C(=O)[C@@H](NC(=O)[C@H](C(C)C)N(C)C)C(C)C`: 600 ng/mL (≈ 764 nM); for `CC[C@@H](C)[C@H]([C@H](CC(=O)N1CCC[C@H]1[C@H](OC)[C@H](C)C(=O)N[C@@H](Cc1ccccc1)c1nccs1)OC)N(C)C(=O)[C@@H](NC(=O)[C@H](C(C)C)N(C)C)C(C)C`: 150 ng/mL (≈ 191 nM); for `CCC(C)[C@H]([C@H](CC(=O)N1CCC[C@H]1[C@H](OC)[C@H](C)C(=O)N[C@@H](Cc1ccccc1)c1nccs1)OC)N(C)C(=O)[C@@H](NC(=O)[C@H](C(C)C)N(C)C)C(C)C` (some centres undefined): 270 ng/mL (≈ 344 nM).
Under `CC[C@@H](C)[C@@H]([C@H](CC(=O)N1CCC[C@H]1[C@H](OC)[C@H](C)C(=O)N[C@@H](Cc1ccccc1)c1nccs1)OC)N(C)C(=O)[C@@H](NC(=O)[C@H](C(C)C)N(C)C)C(C)C` stands 410 ng/mL (≈ 522 nM).
As to `CC[C@@H](C)[C@H]([C@H](CC(=O)N1CCC[C@H]1[C@@H](OC)[C@@H](C)C(=O)N[C@@H](Cc1ccccc1)c1nccs1)OC)N(C)C(=O)[C@@H](NC(=O)[C@H](C(C)C)N(C)C)C(C)C`, the EC50 came out at 200 ng/mL (≈ 255 nM).
The same measure for `CC[C@@H](C)[C@H]([C@H](CC(=O)N1CCC[C@H]1[C@@H](OC)[C@H](C)C(=O)N[C@@H](Cc1ccccc1)c1nccs1)OC)N(C)C(=O)[C@@H](NC(=O)[C@H](C(C)C)N(C)C)C(C)C`: 630 ng/mL (≈ 802 nM); for `CC[C@@H](C)[C@H]([C@H](CC(=O)N1CCC[C@H]1[C@H](OC)[C@@H](C)C(=O)N[C@@H](Cc1ccccc1)c1nccs1)OC)N(C)C(=O)[C@@H](NC(=O)[C@H](C(C)C)N(C)C)C(C)C`: 3.2 ng/mL (≈ 4.08 nM); for `CC[C@@H](C)[C@@H]([C@@H](CC(=O)N1CCC[C@H]1[C@H](OC)[C@@H](C)C(=O)N[C@@H](Cc1ccccc1)c1nccs1)OC)N(C)C(=O)[C@@H](NC(=O)[C@H](C(C)C)N(C)C)C(C)C`: 0.049 ng/mL (≈ 0.0624 nM).
The same measure for `CC[C@@H](C)[C@H]([C@@H](CC(=O)N1CCC[C@H]1[C@@H](OC)[C@H](C)C(=O)N[C@@H](Cc1ccccc1)c1nccs1)OC)N(C)C(=O)[C@@H](NC(=O)[C@H](C(C)C)N(C)C)C(C)C`: more than 1000 ng/mL.
As for `CCC(C)[C@H]([C@H](CC(=O)N1CCC[C@H]1[C@H](OC)[C@@H](C)C(=O)N[C@@H](Cc1ccccc1)c1nccs1)OC)N(C)C(=O)[C@@H](NC(=O)[C@H](C(C)C)N(C)C)C(C)C` (some centres undefined), the EC50 is 3.2 ng/mL (≈ 4.08 nM).
As for `CC[C@@H](C)[C@@H]([C@@H](CC(=O)N1CCC[C@H]1[C@@H](OC)[C@@H](C)C(=O)N[C@@H](Cc1ccccc1)c1nccs1)OC)N(C)C(=O)[C@@H](NC(=O)[C@H](C(C)C)N(C)C)C(C)C`, the EC50 came to 3.9 ng/mL (≈ 4.97 nM).
Under `CC[C@@H](C)[C@@H]([C@@H](CC(=O)N1CCC[C@H]1[C@H](OC)[C@H](C)C(=O)N[C@@H](Cc1ccccc1)c1nccs1)OC)N(C)C(=O)[C@@H](NC(=O)[C@H](C(C)C)N(C)C)C(C)C` stands 5.6 ng/mL (≈ 7.13 nM).
